For one assay, the system named is Kleb. pneumo. 4200. Nature of the assay: in vivo mouse protection test. Particulars: sc. The method, then: (§1) 4200 upon subcutaneous injection; cefazolin gave results of 4.4 mg/kg against E. coli 12140 and 7.2 mg/kg against Kleb. pneumo. 4200 upon subcutaneous administration.
The test system of a further assay is E. coli 12140. Nature of the assay: in vivo mouse protection test. The method, then: as §1
Another assay has as its system Kleb. pneumo. SK 4200. Nature of the assay: in vitro testing, minimum inhibitory concentration (MIC). The format is cell-based. Particulars: cefazolin values in parenthesis. The protocol:
(§2) The compounds of Formula I have anti-bacterial activity against both Gram-positive and Gram-negative organisms. Minimum inhibitory concentrations (MIC's) range from 0.1 to >200 μg/ml in in vitro testing. Test results for the compounds 7β-D-mandelamido-3-(1-diethoxyphosphinylmethyltetrazol-5-ylthiomethyl)-3-cephem-4-carboxylic acid sodium salt hydrate (Compound A), 7β-D-mandelamido-3-(1-ethoxyhydroxyphosphinylmethyltetrazol-5-ylthiomethyl)-3-cephem-4-carboxylic acid disodium salt hydrate (Compound B) and 7β-D-mandelamido-3-(1-phosphonomethyltetrazol-5-ylthiomethyl)-3-cephem-4-carboxylic acid (Compound C) are given below. Results shown in parenthesis are those obtained for cefazolin.

For a further assay, the system named is Entero. cloacae HH 31254. The description is as above. The assay is classed as cell-based. Particulars: Enterobacter cloacae, HH31254. The method, then: as §2
Assay [1] deals with Serratia marc. ATCC 13880. The assay is described as above. The assay is classed as cell-based. The protocol: as §2
The next assay relates to Strep. faecalis HH 34358. Described as above. The assay is classed as cell-based. The method, then:
as §2

Another assay deals with Proteus mirabilis 444. The assay is described as above. The assay is classed as cell-based. The protocol: as §2
The next assay relates to Kleb. pneumo. SK 1200. Described as above. The format is cell-based. The protocol: as §2
For the next assay, the system named is Salmonella ATCC 12176. Described as above. The format is cell-based. The method, then:
as §2

The test system of a further assay is E. coli SK 12140. The description is as above. The format is cell-based. The protocol:
as §2

For the next assay, the system named is Proteus morgani 179. The description is as above. The format is cell-based. Particulars: cefazolin values in parenthesis. The method, then:
as §2

A further assay has as its system E. coli HH 33779. Described as above. The assay is classed as cell-based. The method, then:
as §2

The next assay concerns S. aureus SK 127. The assay is described as above. The conditions noted are these: Staphylococcus aureus, SK127, cefazolin values in parenthesis. The assay is classed as cell-based. The protocol:
as §2

In a further assay the test system is S. aureus SK 23390. The assay is described as above. The format is cell-based. The method, then:
as §2

The next assay relates to Pseudo. aerug. HH 63. The description is as above. The assay is classed as cell-based. The method, then: as §2
In the next assay the test system is S. villaluz SK 70390. The description is as above. The assay is classed as cell-based. The conditions noted are these: cefazolin values in parenthesis. The protocol: as §2
Assay [2] has as its system Entero. aerog. ATCC 13048. Described as above. The format is cell-based. The method, then:
as §2

Where [3] appears, read: Entero. cloacae HH 31254, in vitro, cefazolin values in parenthesis, read-out: MIC.
Where [4] appears, read: Serratia, ATCC13880, Serratia marc. ATCC 13880, cefazolin values in parenthesis, read-out: MIC.
The mark [5] stands for this setting: Enterococcus faecalis, HH34358, cefazolin values in parenthesis, read-out: MIC.
Setting [6] is: Proteus mirabilis 444, cefazolin values in parenthesis, read-out: MIC.
Setting [7] is: Kleb. pneumo. SK 1200, in vitro, cefazolin values in parenthesis, read-out: MIC.
Where [8] appears, read: Salmonella, ATCC12176, Salmonella ATCC 12176, cefazolin values in parenthesis, read-out: MIC.
Where [9] appears, read: Escherichia coli, SK12140, E. coli SK 12140, in vitro, cefazolin values in parenthesis, read-out: MIC.
[10] abbreviates: Escherichia coli, HH33779, E. coli HH 33779, cefazolin values in parenthesis, read-out: MIC.
Setting [11] is: Staphylococcus aureus, SK23390, S. aureus SK 23390, in vitro, cefazolin values in parenthesis, read-out: MIC.
[12] abbreviates: Pseudo. aerug. HH 63, in vitro, cefazolin values in parenthesis, read-out: MIC.
[13] abbreviates: Entero. aerog. ATCC 13048, in vitro, cefazolin values in parenthesis, read-out: MIC.

Values after ≈ are worked out from the molar mass of the structure shown. Counter-ions that a name gives are not always drawn. Like-named read-outs stand apart in the source and are kept apart here. Some results are limits rather than exact numbers.

As usually defined, the ED50 is the midpoint of the dose-response relation. For orientation: MIC means the lowest concentration that inhibits growth of the organism. On to `Cc1nnc(SCC2=C(C(=O)O)N3C(=O)[C@@H](NC(=O)Cn4cnnn4)[C@H]3SC2)s1` [cefazolin, reference compound], for which the ED50 was found to be 7.2 mg/kg with Kleb. pneumo. 4200 (mouse protection, Kleb. pneumo. 4200, subcutaneous, read-out: ED50) and 4.4 mg/kg in the assay on E. coli 12140 (Escherichia coli, sc, mouse protection, E. coli 12140, subcutaneous, read-out: ED50). Besides, the MIC with Kleb. pneumo. SK 4200 (read-out: MIC) is 1.6 mg/L (≈ 3.52 µM); in the assay with Entero. cloacae HH 31254 (setting [3]) it was 0.8 mg/L (≈ 1.76 µM); in assay [1] (ATCC13880, Serratia marc. ATCC 13880, cefazolin values in parenthesis, read-out: MIC), 50 mg/L (≈ 110 µM); in assay [1] (setting [4]) it was above 200 mg/L; in the assay on Strep. faecalis HH 34358 (setting [5]) it was 6.3 mg/L (≈ 13.9 µM); in the assay with Proteus mirabilis 444 (setting [6]) it was 3.1 mg/L (≈ 6.82 µM). The MIC with Kleb. pneumo. SK 1200 (Kleb. pneumo. SK 1200, in vitro, cefazolin values in parenthesis) came out at 0.4 mg/L (≈ 0.88 µM); in the assay on Kleb. pneumo. SK 1200 (setting [7]), 0.8 mg/L (≈ 1.76 µM); in the assay with Salmonella ATCC 12176 (Salmonella ATCC 12176, cefazolin values in parenthesis), 0.4 mg/L (≈ 0.88 µM); with Salmonella ATCC 12176 (setting [8]) it was 0.8 mg/L (≈ 1.76 µM); in the assay with E. coli SK 12140 (setting [9]) it was 0.8 mg/L (≈ 1.76 µM); in the assay with Proteus morgani 179, 100 mg/L (≈ 220 µM). For the same molecule, the minimal inhibitory concentration (MIC) was 200 mg/L (≈ 440 µM) in the assay on Proteus morgani 179 (read-out: MIC); 0.8 mg/L (≈ 1.76 µM) in the assay with E. coli HH 33779 (E. coli HH 33779, cefazolin values in parenthesis); 1.6 mg/L (≈ 3.52 µM) in the assay with E. coli HH 33779 (setting [10]); 0.4 mg/L (≈ 0.88 µM) in the assay on S. aureus SK 127; 0.2 mg/L (≈ 0.44 µM) in the assay with S. aureus SK 23390 (S. aureus SK 23390, in vitro, cefazolin values in parenthesis); 0.4 mg/L (≈ 0.88 µM) with S. aureus SK 23390 (setting [11]). Besides, the minimum inhibitory concentration (MIC) in the assay with Pseudo. aerug. HH 63 (setting [12]) is above 200 mg/L; in the assay with S. villaluz SK 70390 it was 100 mg/L (≈ 220 µM).

On to `O=C(O)C1=C(CSc2nnnn2CP(=O)(O)O)CS[C@@H]2[C@H](NC(=O)[C@H](O)c3ccccc3)C(=O)N12` [Compound C, 7β-D-mandelamido-3-(1-phosphonomethyltetrazol-5-ylthiomethyl)-3-cephem-4-carboxylic acid], for which the minimum inhibitory concentration (MIC) with Kleb. pneumo. SK 4200 (read-out: MIC) came to 1.6 mg/L (≈ 2.95 µM); in the assay on Entero. cloacae HH 31254 (setting [3]) it was 1.6 mg/L (≈ 2.95 µM); in assay [1] (setting [4]), 3.1 mg/L (≈ 5.71 µM); in the assay with Strep. faecalis HH 34358 (setting [5]), 200 mg/L (≈ 369 µM); with Proteus mirabilis 444 (setting [6]), 0.4 mg/L (≈ 0.737 µM); with Kleb. pneumo. SK 1200 (setting [7]) it was 0.8 mg/L (≈ 1.47 µM). Moreover, the minimal inhibitory concentration (MIC) with Salmonella ATCC 12176 (setting [8]) worked out at 0.8 mg/L (≈ 1.47 µM); in the assay with E. coli SK 12140 (setting [9]) it was 3.1 mg/L (≈ 5.71 µM); in the assay with Proteus morgani 179 (read-out: MIC), 50 mg/L (≈ 92.2 µM); in the assay with E. coli HH 33779 (setting [10]), 3.1 mg/L (≈ 5.71 µM); in the assay with S. aureus SK 127 it was 6.3 mg/L (≈ 11.6 µM); in the assay with S. aureus SK 23390 (setting [11]), 3.1 mg/L (≈ 5.71 µM). Moreover, the minimum inhibitory concentration (MIC) in the assay with Pseudo. aerug. HH 63 (setting [12]) was above 200 mg/L; in assay [2] (setting [13]) it was 6.3 mg/L (≈ 11.6 µM); with S. villaluz SK 70390 (read-out: MIC), above 200 mg/L.

As for `CCOP(=O)(O)Cn1nnnc1SCC1=C(C(=O)O)N2C(=O)[C@@H](NC(=O)[C@H](O)c3ccccc3)[C@H]2SC1` [Compound B, 7β-D-mandelamido-3-(1-ethoxyhydroxyphosphinylmethyltetrazol-5-ylthiomethyl)-3-cephem-4-carboxylic acid disodium salt hydrate], the 50% effective dose (ED50) with Kleb. pneumo. 4200 (Mus musculus) was 0.39 mg/kg; in the assay on E. coli 12140 (Escherichia coli, 12140, sc) it was 1.02 mg/kg. Besides, the minimum inhibitory concentration (MIC) in the assay on Kleb. pneumo. SK 4200 (read-out: MIC) was 0.4 mg/L; with Entero. cloacae HH 31254 (setting [3]) it was 0.8 mg/L; in the assay with Strep. faecalis HH 34358 (setting [5]), 100 mg/L; in the assay with Strep. faecalis HH 34358 (cefazolin values in parenthesis, disodium salt hydrate), 50 mg/L; with Proteus mirabilis 444 (setting [6]), 1.6 mg/L; with Kleb. pneumo. SK 1200 (setting [7]), 0.4 mg/L. Also, the MIC is 0.8 mg/L in the assay on E. coli SK 12140 (E. coli SK 12140, in vitro, cefazolin values in parenthesis, disodium salt hydrate); 0.4 mg/L in the assay on E. coli SK 12140 (setting [9]); 1.6 mg/L in the assay with E. coli HH 33779 (setting [10]); 6.3 mg/L with S. aureus SK 127; 1.6 mg/L in the assay on S. aureus SK 23390 (setting [11]); above 200 mg/L with Pseudo. aerug. HH 63 (setting [12]). Besides, the MIC in assay [2] (setting [13]) was 3.1 mg/L; in the assay with S. villaluz SK 70390 (read-out: MIC) it was above 200 mg/L.

On to `CCOP(=O)(Cn1nnnc1SCC1=C(C(=O)[O-])N2C(=O)[C@@H](NC(=O)[C@H](O)c3ccccc3)[C@H]2SC1)OCC.O.[Na+]` [Compound A, 7β-D-mandelamido-3-(1-diethoxyphosphinylmethyltetrazol-5-ylthiomethyl)-3-cephem-4-carboxylic acid sodium salt hydrate], for which the MIC in the assay on Kleb. pneumo. SK 4200 was determined as 3.1 mg/L; with Kleb. pneumo. SK 4200 (sodium salt hydrate), 1.6 mg/L; in the assay with Entero. cloacae HH 31254, 3.1 mg/L; in assay [1] (Serratia marc. ATCC 13880, cefazolin values in parenthesis, sodium salt hydrate) it was 12.5 mg/L; in assay [1] (Serratia, ATCC13880, Serratia marc. ATCC 13880, cefazolin values in parenthesis), 25 mg/L; with Strep. faecalis HH 34358 (Enterococcus faecalis, HH34358, cefazolin values in parenthesis), 12.5 mg/L. For the same molecule, the MIC with Strep. faecalis HH 34358 (cefazolin values in parenthesis, sodium salt hydrate) worked out at 25 mg/L; in the assay with Proteus mirabilis 444 (Proteus mirabilis 444, cefazolin values in parenthesis, sodium salt hydrate) it was 1.6 mg/L; in the assay with Proteus mirabilis 444 (Proteus mirabilis, 444, Proteus mirabilis 444, cefazolin values in parenthesis) it was 3.1 mg/L; in the assay with Kleb. pneumo. SK 1200, 3.1 mg/L; with Salmonella ATCC 12176 (Salmonella ATCC 12176, cefazolin values in parenthesis, sodium salt hydrate), 1.6 mg/L; in the assay on Salmonella ATCC 12176 (Salmonella, ATCC12176, Salmonella ATCC 12176, cefazolin values in parenthesis) it was 3.1 mg/L. In addition, the minimal inhibitory concentration (MIC) in the assay with E. coli SK 12140 (Escherichia coli, SK12140) was 6.3 mg/L; in the assay on Proteus morgani 179, 3.1 mg/L; in the assay with Proteus morgani 179 (sodium salt hydrate), 1.6 mg/L; in the assay with E. coli HH 33779 (E. coli HH 33779, cefazolin values in parenthesis, sodium salt hydrate), 6.3 mg/L; in the assay on E. coli HH 33779 (Escherichia coli, HH33779, E. coli HH 33779, cefazolin values in parenthesis), 12.5 mg/L; in the assay on S. aureus SK 23390 (Staphylococcus aureus, SK23390) it was 0.8 mg/L. Moreover, the figures for the minimal inhibitory concentration (MIC) (against Pseudo. aerug. HH 63; in assay [2]; in the assay with S. villaluz SK 70390 (read-out: MIC)) were above 200 mg/L, 12.5 mg/L and 50 mg/L, respectively.

These data come from patent publication US4112086A, “7β-Acylamino-3-(phosphonoalkyl and esterified phosphonoalkyl substituted tetrazolylthiomethyl)cephalosporins” (SmithKline Corporation, priority 1976, dated 1978).
